Our source for the MIC values is patent US9045466B2, “Amidine compound or salt thereof” (priority 2011, dated 2015).

≈ marks a conversion by molar mass, not a printed value. Where a name gives a salt, the structure may show the parent alone. Read-outs that look alike come from different tables or passages of the source.

What all share (assay): Fungal susceptibility test, broth microdilution method (MIC)
Holding throughout (assay type): cell-based

Experiment [1] concerns Aspergillus fumigatus TIMM 0063. The settings on record: TIMM0063, 48 h. How it is done: (§1) The fungal susceptibility tests on test substances were conducted by the broth microdilution method equivalent to Clinical and Laboratory Standards Institute method. The medium used in the susceptibility tests was RPMI1640 adjusted to pH 7.0 with 0.165 mol/L morpholinepropanesulfonic acid (MOPS) and 50% sodium hydroxide (RPMI/MOPS). Each test substance was dissolved in DMSO and serially diluted in 2-fold increments with DMSO on a 96-well microplate. Then, the dilutions were dispensed by 1 μL to a 96-well microplate. Candida albicans TIMM 1623 cultured overnight at 35° C. in Sabouraud's agar medium was suspended in sterile saline. The number of cells was counted under a biological microscope, and the fungal suspension was diluted with RPMI/MOPS to prepare the inoculum solution (approximately 1×10^3 cells/mL). Alternatively, Candida albicans TIMM 1623 stored at −80° C. was diluted with RPMI/MOPS to prepare the inoculum solution (approximately 1×10^3 CFU/mL). Aspergillus fumigatus TIMM 0063 stored at 5° C. was diluted with RPMI/MOPS to prepare the inoculum solution (approximately 1×10^4 CFU/mL). Trichophyton rubrum NBRC 5467 stored at 5° C. or −80° C. was diluted with RPMI/MOPS to prepare the inoculum solution (approximately 2×10^3 CFU/mL). The 199 μL of inoculum solution was dispensed to each well to prepare the microplate containing the designated concentrations of test substance, medium and fungal cells. Candida albicans and Aspergillus fumigatus were cultured at 35° C. for 2 days. Trichophyton rubrum was cultured at 35° C. for 4 days. After the completion of culture, MIC was determined by visual observation. The MICs of Candida albicans and Aspergillus fumigatus were set to the lowest concentration at which approximately 50% growth inhibition was seen, when compared with a growth control without the addition of the test substance. The MIC of Trichophyton rubrum was set to the lowest concentration at which approximately 80% growth inhibition was seen, when compared with a growth control without the addition of the test substance.

Experiment [2] deals with Trichophyton rubrum NBRC 5467. To be noted: NBRC5467, 96 h. The procedure:
as §1

Experiment [3] concerns Candida albicans TIMM 1623. The settings on record: TIMM1623, 48 h. The procedure: as §1
Where [4] appears, read: RPMI/MOPS pH 7.0, 35° C. for 2 days, visual, lowest concentration with approximately 50% growth inhibition, read-out: MIC (μg/mL) A. fumigatus TIMM 0063.
Setting [5] is: RPMI/MOPS pH 7.0, 35° C. for 4 days, visual, lowest concentration with approximately 80% growth inhibition, read-out: MIC (μg/mL) T. rubrum NBRC5467.
Where [6] appears, read: pH 7, read-out: MIC (μg/mL) A. fumigatus TIMM 0063.
The mark [7] stands for this setting: pH 7, read-out: MIC (μg/mL) T. rubrum NBRC5467.
Where [8] appears, read: pH 7, read-out: MIC (μg/mL) C. albicans TIMM1623.
The mark [9] stands for this setting: RPMI/MOPS pH 7.0, 35° C. for 2 days, visual, lowest concentration with approximately 50% growth inhibition, read-out: MIC (μg/mL) C. albicans TIMM1623.

As for `Cc1ccc(-c2csc(Cc3cc(C)c(/N=C/N4CCCC4)cc3C)n2)cc1` [Example 1, 2,5-Dimethyl-4-{[4-(4-methylphenyl)-1,3-thiazol-2-yl]methyl}-N-[(E)-pyrrolidin-1-ylmethylidene]aniline], the MIC in experiment [1] (setting [4]) was 0.0625 µg/mL (≈ 0.16 µM); in experiment [2] (setting [5]) it was 0.0039 µg/mL (≈ 0.01 µM).

Turning to `CCN(C)/C=N/c1cc(C)c(Cc2nc(-c3ccc(C)cc3)cs2)cc1C` [Example 3, N′-(2,5-Dimethyl-4-{[4-(4-methylphenyl)-1,3-thiazol-2-yl]methyl}phenyl)-N-ethyl-N-methylimidoformamide dihydrochloride], the MIC in experiment [1] (setting [6]) came out at 0.0156 µg/mL; in experiment [2] (setting [7]) it was 0.0005 µg/mL; in experiment [3] (setting [8]), 0.0156 µg/mL.

Consider `CCN(C)/C=N/c1cc(C)c(Cc2nc(-c3cnc(C(C)(C)C(F)(F)F)cn3)cs2)cc1C` [Example 4, N′-[2,5-Dimethyl-4-({4-[5-(1,1,1-trifluoro-2-methylpropan-2-yl)pyrazin-2-yl]-1,3-thiazol-2-yl}methyl)phenyl]-N-ethyl-N-methylimidoformamide hydrochloride], for which the MIC in experiment [2] (setting [7]) stood at 0.002 µg/mL; in experiment [3] (setting [8]), 0.0313 µg/mL.

For the molecule `CCN(C)/C=N/c1cc(C)c(Cc2nc(-c3ccc(C(=O)OC)cc3)cs2)cc1C` [Example 14, Methyl 4-{2-[4-({(E)-[ethyl(methyl)amino]methylidene}amino)-2,5-dimethylbenzyl]-1,3-thiazol-4-yl}benzoate dihydrochloride], the MIC in experiment [3] (setting [8]) was 0.0625 µg/mL.

Regarding `CCN(C)/C=N/c1cc(C)c(Cc2nc(-c3ccc(C(C)(C)C)cc3)cs2)cc1C` [Example 17, N′-(4-{[4-(4-Tert-butylphenyl)-1,3-thiazol-2-yl]methyl}-2,5-dimethylphenyl)-N-ethyl-N-methylimidoformamide dihydrochloride], the MIC in experiment [2] (setting [7]) is 0.002 µg/mL; in experiment [3] (setting [8]), 0.0313 µg/mL.

Consider `CCN(C)/C=N/c1cc(C)c(Cc2nc(-c3ncc(C(C)(C)C)s3)cs2)cc1C` [Example 20, N′-{4-[(5-Tert-butyl-2,4′-bi-1,3-thiazol-2′-yl)methyl]-2,5-dimethylphenyl}-N-ethyl-N-methylimidoformamide dihydrochloride], for which the MIC turned out to be 0.002 µg/mL in experiment [2] (setting [7]) and 0.0313 µg/mL in experiment [3] (setting [8]).

In the case of `CCN(C)/C=N/c1cc(C)c(Cc2nc(-c3ccc(C(=O)NC(C)(C)C)cc3)cs2)cc1C` [Example 24, N-Tert-butyl-4-{2-[4-({(E)-[ethyl(methyl)amino]methylidene}amino)-2,5-dimethylbenzyl]-1,3-thiazol-4-yl}benzamide dihydrochloride], the MIC in experiment [2] (setting [7]) was 0.0039 µg/mL; in experiment [3] (setting [8]), 0.0313 µg/mL.

As to `CCN(C)/C=N/c1cc(C)c(Cc2nc(-c3cnc(OC)cn3)cs2)cc1C` [Example 26, N-Ethyl-N′-(4-{[4-(5-methoxypyrazin-2-yl)-1,3-thiazol-2-yl]methyl}-2,5-dimethylphenyl)-N-methylimidoformamide hydrobromide], the MIC in experiment [1] (setting [4]) and in experiment [3] (setting [9]) was 0.0625 µg/mL throughout.

With `CCN(C)/C=N/c1cc(C)c(Cc2nc(C(=O)c3ccc(Cl)cc3)cs2)cc1C` [Example 27, N′-[4-({4-[(4-Chlorophenyl)carbonyl]-1,3-thiazol-2-yl}methyl)-2,5-dimethylphenyl]-N-ethyl-N-methylimidoformamide hydrobromide], the MIC in experiment [1] (setting [4]) and in experiment [3] (setting [9]) was 0.0625 µg/mL each time.

In the case of `CCN(C)/C=N/c1cc(C)c(Cc2nc(C(C)(C)C)cs2)cc1C` [Example 29, N′-{4-[(4-Tert-butyl-1,3-thiazol-2-yl)methyl]-2,5-dimethylphenyl}-N-ethyl-N-methylimidoformamide dihydrochloride], the MIC came to 0.0039 µg/mL in experiment [2] (setting [7]) and 0.0625 µg/mL in experiment [3] (setting [8]).

`CCN(C)/C=N/c1cc(C)c(Cc2nc(C(=O)c3ccc(C(F)(F)F)cc3)cs2)cc1C` [Example 36, N′-{2,5-Dimethyl-4-[(4-{[4-(trifluoromethyl)phenyl]carbonyl}-1,3-thiazol-2-yl)methyl]phenyl}-N-ethyl-N-methylimidoformamide hydrobromide]: the MIC in experiment [3] (setting [9]) amounted to 0.0313 µg/mL.

As to `CCN(C)/C=N/c1cc(C)c(Cc2nc(-c3ccc(C(=O)N(C)CC)cc3)cs2)cc1C` [Example 42, N-Ethyl-4-{2-[4-({(E)-[ethyl(methyl)amino]methylidene}amino)-2,5-dimethylbenzyl]-1,3-thiazol-4-yl}-N-methylbenzamide], the MIC in experiment [3] (setting [9]) was found to be 0.0625 µg/mL (≈ 0.139 µM).

On to `CCN(C)/C=N/c1cc(C)c(Cc2nc(-c3cscn3)cs2)cc1C` [Example 48, N′-[4-(4,4′-Bi-1,3-thiazol-2-ylmethyl)-2,5-dimethylphenyl]-N-ethyl-N-methylimidoformamide hydrochloride], for which the MIC in experiment [2] (setting [7]) was found to be 0.0078 µg/mL; in experiment [3] (setting [8]), 0.0625 µg/mL.

For the molecule `CCN(C)/C=N/c1cc(C)c(Cc2nc(-c3ccc(Cl)cc3)cs2)cc1C` [Example 49, N′-(4-{[4-(4-Chlorophenyl)-1,3-thiazol-2-yl]methyl}-2,5-dimethylphenyl)-N-ethyl-N-methylimidoformamide hydrochloride], the figures for the MIC in experiment [1] (setting [6]) and in experiment [3] (setting [8]) were 0.0625 µg/mL and 0.0156 µg/mL, respectively.

Consider `CCN(C)/C=N/c1cc(C)c(Cc2nc(COc3ccc(C)cc3)cs2)cc1C` [Example 60, N′-[2,5-Dimethyl-4-({4-[(4-methylphenoxy)methyl]-1,3-thiazol-2-yl}methyl)phenyl]-N-ethyl-N-methylimidoformamide], for which the MIC worked out at 0.001 µg/mL (≈ 0.00245 µM) in experiment [2] (setting [5]) and 0.0156 µg/mL (≈ 0.0383 µM) in experiment [3] (setting [9]).

Regarding `CCN(C)/C=N/c1cc(C)c(Cc2nc(-c3ccc(C(=O)NC(C)C)cc3)cs2)cc1C` [Example 98, 4-{2-[4-({(E)-[Ethyl(methyl)amino]methylidene}amino)-2,5-dimethylbenzyl]-1,3-thiazol-4-yl}-N-(propan-2-yl)benzamide], the MIC in experiment [2] (setting [5]) amounted to 0.0156 µg/mL (≈ 0.0348 µM).

Regarding `CCN(C)/C=N/c1cc(C)c(Cc2nc(-c3ccc(C(=O)NCC(C)(C)C)cc3)cs2)cc1C` [Example 99, N-(2,2-Dimethylpropyl)-4-{2-[4-({(E)-[ethyl(methyl)amino]methylidene}amino)-2,5-dimethylbenzyl]-1,3-thiazol-4-yl}benzamide], the MIC in experiment [3] (setting [9]) came out at 0.0625 µg/mL (≈ 0.131 µM).

For the molecule `CCN(C)/C=N/c1cc(C)c(Cc2nc(-c3ccc(C(=O)N4CCC4)cc3)cs2)cc1C` [Example 101, N′-[4-({4-[4-(Azetidin-1-ylcarbonyl)phenyl]-1,3-thiazol-2-yl}methyl)-2,5-dimethylphenyl]-N-ethyl-N-methylimidoformamide], in experiment [2] (setting [5]), the MIC came to 0.0625 µg/mL (≈ 0.14 µM).

`CCN(C)/C=N/c1cc(C)c(Cc2nc(NC(=O)OC(C)C)cs2)cc1C` [Example 102, Propan-2-yl {2-[4-({(E)-[ethyl(methyl)amino]methylidene}amino)-2,5-dimethylbenzyl]-1,3-thiazol-4-yl}carbamate]: in experiment [2] (setting [5]), the MIC is 0.0078 µg/mL (≈ 0.0201 µM).

Take `CCN/C=N/c1cc(C)c(Cc2nc(-c3cnc(C)cn3)cs2)cc1C` [Example 105, N′-(2,5-Dimethyl-4-{[4-(5-methylpyrazin-2-yl)-1,3-thiazol-2-yl]methyl}phenyl)-N-ethylimidoformamide hydrochloride]: the MIC in experiment [2] (setting [7]) was 0.0313 µg/mL.

For `CCN(C)/C=N/c1cc(C)c(Cc2nc(C(=O)NC(C)(C)C(F)(F)F)cs2)cc1C` [Example 109, 2-[4-({(E)-[Ethyl(methyl)amino]methylidene}amino)-2,5-dimethylbenzyl]-N-(1,1,1-trifluoro-2-methylpropan-2-yl)-1,3-thiazole-4-carboxamide hydrochloride], the MIC in experiment [2] (setting [7]) came out at 0.0039 µg/mL.
